Numbering of substitutions follows the chain as printed. “And” between values parts separate entries of the source, which are not always exact repeats. Identical values can stand only once.
Biological target: T1, HA-S170A + myc-F801A (S170A:F801A heterodimer) (Rattus norvegicus, UniProt P48442, F801A/S170A)
T1 construct: mGluR5 signal peptide (N); expressed in transfected cells; host or cells: HEK293T
T1 sequence (P48442 20-1079 S170A): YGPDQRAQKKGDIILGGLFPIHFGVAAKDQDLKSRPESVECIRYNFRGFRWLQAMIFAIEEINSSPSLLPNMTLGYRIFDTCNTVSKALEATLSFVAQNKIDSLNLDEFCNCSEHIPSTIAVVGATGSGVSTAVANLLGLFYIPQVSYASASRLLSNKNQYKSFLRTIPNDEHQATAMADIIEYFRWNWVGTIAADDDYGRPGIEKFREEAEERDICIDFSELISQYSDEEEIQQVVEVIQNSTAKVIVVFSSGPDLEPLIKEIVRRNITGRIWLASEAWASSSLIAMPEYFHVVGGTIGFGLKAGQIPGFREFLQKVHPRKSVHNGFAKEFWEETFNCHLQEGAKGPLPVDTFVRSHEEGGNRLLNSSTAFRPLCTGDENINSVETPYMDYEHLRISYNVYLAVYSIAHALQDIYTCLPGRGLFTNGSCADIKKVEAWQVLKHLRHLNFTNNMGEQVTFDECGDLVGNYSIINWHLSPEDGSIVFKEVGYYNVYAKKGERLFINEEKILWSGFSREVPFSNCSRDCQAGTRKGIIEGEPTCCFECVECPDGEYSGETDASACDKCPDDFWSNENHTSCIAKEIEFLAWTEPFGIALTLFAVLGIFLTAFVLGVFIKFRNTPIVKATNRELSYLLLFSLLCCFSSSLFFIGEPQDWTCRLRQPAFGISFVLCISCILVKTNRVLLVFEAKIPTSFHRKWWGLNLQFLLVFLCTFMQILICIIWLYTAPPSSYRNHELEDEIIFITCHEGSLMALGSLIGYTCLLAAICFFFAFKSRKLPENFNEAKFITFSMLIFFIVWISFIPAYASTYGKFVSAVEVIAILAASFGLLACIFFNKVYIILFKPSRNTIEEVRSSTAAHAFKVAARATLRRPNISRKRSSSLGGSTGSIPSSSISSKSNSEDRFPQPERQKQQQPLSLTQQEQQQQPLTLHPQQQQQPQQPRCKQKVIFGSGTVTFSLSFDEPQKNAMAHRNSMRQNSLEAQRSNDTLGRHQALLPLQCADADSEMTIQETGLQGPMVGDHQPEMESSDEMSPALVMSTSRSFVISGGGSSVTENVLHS
T1 sequence (P48442 20-1079 F801A): T1 sequence (P48442 20-1079 S170A) with A151S, F782A
Experiment: IP-One trans-activation assay, co-expression 1:1 in HEK293T
Assay type: cell-based
Method: Human embryonic kidney (HEK) 293T cells were cultured in DMEM supplemented with 10% dFBS and 1% P/S at 37 °C and 5% CO2. 48 h prior to assay, transient transfection was performed using Lipofectamine 2000 as the transfection reagent. White opaque 96-well culture plates (PerkinElmer, Waltham, MA, USA) were used for the ELISA and the TR-FRET dimerization assay, while clear tissue culture treated 96-well plates (Corning, Corning, NY, USA) were used for the IP-One assay. Both plate types were coated with poly-D-lysine before addition of cells and transfection mix. 0.25 μl/well of Lipofectamine 2000 were diluted in 25 μl/well of Opti-MEM and incubated at room temperature (RT) for 5 min. 0.03 μg/well of DNA was diluted in 25 μl/well of Opti-MEM, and subsequently mixed with the Lipofectamine 2000 dilution and incubated 20 min at RT before addition to the plates. Cell suspensions of 170.000 HEK293T cells/mL were prepared in complete growth medium and 100 μl/well (17.000 cells/well) was added to the plates, which were incubated for 48 h at 37 °C and 5% CO2 before performing assays.
Functional activity was measured using the IP-One assay, which is an IP1 accumulation assay. For agonist testing, ligands were prepared in final concentrations in ligand buffer (HBSS, 20 mM HEPES, pH 7.4 supplemented with 20 mM LiCl). Cells were washed once with 100 μl/well of assay buffer (HBSS, 20 mM HEPES, pH 7.4) and 50 μl/well of agonist solution was added after which plates were incubated at 37 °C for 30 min. Subsequently, ligand solutions were removed and cells were washed with 100 μl/well of assay buffer. Cell lysis was performed by addition of 30 μl/well of IP-One Conjugate & Lysis Buffer (Cisbio Bioassays, Codolet, France) and plates were incubated at RT for 30 min. Afterwards, 30 μl/well of assay buffer was added to dilute the cell lysate. 10 μl/well of cell lysate was transferred from the 96-well plate to a 384-well Optiplate and 10 μl/well of detection solution (Assay buffer + 2.5% of anti-IP1 antibody cryptate Terbium conjugate + 2.5% IP1-d2 conjugate (Cisbio Bioassays, Codolet, France)) was also added. The 384-well plate was incubated for 1 h at RT in dark before being measured on an EnVision plate reader (PerkinElmer, Waltham, MA, USA). Upon excitation at 340 nm, emission at 615 nm and 665 nm was measured, and the FRET ratio (665 nm/615 nm) was converted to IP1 concentrations by interpolating values from an IP1 standard curve generated from a provided IP1 calibrator (Cisbio Bioassays, Codolet, France). When testing allosteric modulators, cells were pre-incubated for 30 min at 37 °C with 50 μl/well of ligand buffer supplemented with allosteric modulator and a final concentration of 1% DMSO. Afterwards, the buffer solution was removed and 50 μl/well of agonist solution in ligand buffer supplemented with allosteric modulator and a final concentration of 1% DMSO was added. Plates were incubated for 30 min at 37 °C followed by one wash in 100 μl/well of assay buffer. Cell lysis and detection was performed as described above.

[1] = HA-S170A + myc-F801A trans-activation response, Ca^2+ alone

[Ca+2] [Ca^2+]
EC50 [1]: 12.7 mM | Hill coefficient ± S.E.M. [1]: 2.69 ± 0.19 | pEC50 ± S.E.M. [1]: 1.90 ± 0.03 | Max ± S.E.M. (HA-S170A + myc-F801A, maximum trans-activation response normalized to maximum response of WT CaSR): 30% and 30 ± 1.9%

CC(C)(Cc1ccc2ccccc2c1)NC[C@@H](O)COc1cccc(Cl)c1C#N.Cl [NPS 2143, NPS 2143 hydrochloride]
inhibition of Ca^2+-mediated response (S170A:F801A heterodimer, highest tested NPS 2143 concentration (5 μM)): full inhibition

COc1cccc([C@@H](C)NCCCc2ccccc2Cl)c1.Cl [NPS R-568, NPS R-568 hydrochloride]
potentiation of Ca^2+-mediated response (S170A:F801A heterodimer, 0.05, 0.1 and 1 μM NPS R-568): concentration-dependent potentiation
